Reference: patent publication US11498899B2, “Nitrone herbicides” (FMC Corporation, priority 2016, dated 2022)

Legend:
[1] = tested on: rice (Oryza sativa); test: Test B flooded paddy test, visual rating 0-100 (0 no effect, 100 complete control); conditions: Flood, 250 g ai/ha, applied to paddy water, rated after 13 to 15 days
[2] = tested on: barnyardgrass (Echinochloa crus-galli); test: Test B flooded paddy test, visual rating 0-100; conditions: Flood, 250 g ai/ha, applied to paddy water, rated after 13 to 15 days
[3] = tested on: kochia (Kochia scoparia); test: Test A preemergence, visual injury rating 0-100; type: in vivo
Source text: (§1) Seeds of plant species selected from barnyardgrass (Echinochloa crus-galli), kochia (Kochia scoparia), ragweed (common ragweed, Ambrosia elatior), ryegrass, Italian (Italian ryegrass, Lolium multiflorum), foxtail, giant (giant foxtail, Setaria faberii), foxtail, green (green foxtail, Setaria viridis), and pigweed (Amaranthus retroflexus) were planted into a blend of loam soil and sand and treated preemergence with a directed soil spray using test chemicals formulated in a non-phytotoxic solvent mixture which included a surfactant.
(§2) At the same time, plants selected from these weed species and also wheat (Triticum aestivum), corn (Zea mays), blackgrass (Alopecurus myosuroides), and galium (catchweed bedstraw, Galium aparine) were planted in pots containing the same blend of loam soil and sand and treated with postemergence applications of test chemicals formulated in the same manner. Plants ranged in height from 2 to 10 cm and were in the one- to two-leaf stage for the postemergence treatment. Treated plants and untreated controls were maintained in a greenhouse for approximately 10 days, after which time all treated plants were compared to untreated controls and visually evaluated for injury. […] A dash (-) response means no test result.

[4] = tested on: ryegrass, Italian (Italian ryegrass, Lolium multiflorum); test: Test A preemergence, visual injury rating 0-100; type: in vivo
Source text: as §1, §2

[5] = tested on: foxtail, giant (giant foxtail, Setaria faberii); test: Test A preemergence, visual injury rating 0-100; type: in vivo
Source text: as §1, §2

[6] = tested on: pigweed (Amaranthus retroflexus); test: Test A preemergence, visual injury rating 0-100; type: in vivo
Source text: as §1, §2

[7] = tested on: ragweed (common ragweed, Ambrosia elatior); test: Test A preemergence, visual injury rating 0-100; type: in vivo
Source text: as §1, §2

[8] = tested on: ducksalad (Heteranthera limosa); test: Test B flooded paddy test, visual rating 0-100; conditions: Flood, 250 g ai/ha, applied to paddy water, rated after 13 to 15 days
[9] = tested on: kochia (Kochia scoparia); test: Test A postemergence, visual injury rating 0-100; type: in vivo; conditions: 0 to 100 scale
Source text: as §1, §2

[10] = tested on: ryegrass, Italian (Italian ryegrass, Lolium multiflorum); test: Test A postemergence, visual injury rating 0-100; type: in vivo; conditions: 0 to 100 scale
Source text: as §1, §2

[11] = tested on: foxtail, giant (giant foxtail, Setaria faberii); test: Test A postemergence, visual injury rating 0-100; type: in vivo; conditions: 0 to 100 scale
Source text: as §1, §2

[12] = tested on: galium (catchweed bedstraw, Galium aparine); test: Test A postemergence, visual injury rating 0-100; type: in vivo; conditions: 0 to 100 scale
Source text: as §1, §2

[13] = tested on: pigweed (Amaranthus retroflexus); test: Test A postemergence, visual injury rating 0-100; type: in vivo; conditions: 0 to 100 scale
Source text: as §1, §2

[14] = tested on: ragweed (common ragweed, Ambrosia elatior); test: Test A postemergence, visual injury rating 0-100; type: in vivo; conditions: 0 to 100 scale
Source text: as §1, §2

[15] = tested on: wheat (Triticum aestivum); test: Test A postemergence, visual injury rating 0-100; type: in vivo; conditions: 0 to 100 scale
Source text: as §1, §2

[16] = tested on: corn (Zea mays); test: Test A postemergence, visual injury rating 0-100; type: in vivo; conditions: 0 to 100 scale
Source text: as §1, §2

[17] = tested on: barnyardgrass (Echinochloa crus-galli); test: Test A postemergence, visual injury rating 0-100; type: in vivo; conditions: 0 to 100 scale
Source text: as §1, §2

[18] = tested on: blackgrass (Alopecurus myosuroides); test: Test A postemergence, visual injury rating 0-100; type: in vivo; conditions: 0 to 100 scale
Source text: as §1, §2

[19] = tested on: barnyardgrass (Echinochloa crus-galli); test: Test A preemergence, visual injury rating 0-100 (0 no effect, 100 complete control); type: in vivo
Source text: as §1, §2

[20] = 31 g ai/ha, 0 to 100 scale (0 no effect, 100 complete control), approx. 10 days

| Compound | Rice plant response rating (0 to 100 scale) [1] | Barnyardgrass plant response rating (0 to 100 scale) [2] | Kochia plant response rating (0 to 100 scale) ([3]; 125 g ai/ha) | Kochia plant response rating (0 to 100 scale) ([3]; 500 g ai/ha) | Ryegrass, Italian plant response rating (0 to 100 scale) ([4]; 125 g ai/ha) | Foxtail, Giant plant response rating (0 to 100 scale) ([5]; 125 g ai/ha) | Pigweed plant response rating (0 to 100 scale) ([6]; 125 g ai/ha) | Ragweed plant response rating (0 to 100 scale) ([7]; 125 g ai/ha) | Ducksalad plant response rating (0 to 100 scale) [8] | Kochia plant response rating ([9]; 125 g ai/ha) | Ryegrass, Italian plant response rating ([10]; 125 g ai/ha) | Foxtail, Giant plant response rating ([11]; 125 g ai/ha) | Galium plant response rating ([12]; 125 g ai/ha) | Pigweed plant response rating ([13]; 125 g ai/ha) | Ragweed plant response rating ([14]; 125 g ai/ha) | Wheat plant response rating ([15]; 125 g ai/ha) | Corn plant response rating ([16]; 125 g ai/ha) | Barnyardgrass plant response rating ([17]; 125 g ai/ha) | Blackgrass plant response rating ([18]; 125 g ai/ha) | Barnyardgrass plant response rating (0 to 100 scale) ([19]; 125 g ai/ha) | also measured |
| --- | --- | --- | --- | --- | --- | --- | --- | --- | --- | --- | --- | --- | --- | --- | --- | --- | --- | --- | --- | --- | --- |
| CC1=[N+]([O-])C(C(=O)Nc2cccc(F)c2F)C(c2cc(F)cc(Oc3ccc(Cl)nc3)c2)C1 (racemic) [Compound 50] | 0 | 0 | 30 | 70 | 0 | 90 | 0 | 0 | 0 | 0 | 0 | 10 | 0 | 0 | 0 | 0 | 0 | 0 | 40 | 50 | Ryegrass, Italian plant response rating (0 to 100 scale) ([4]; 500 g ai/ha): 80; Foxtail, Giant plant response rating (0 to 100 scale) ([5]; 500 g ai/ha): 90; Pigweed plant response rating (0 to 100 scale) ([6]; 500 g ai/ha): 40; Ragweed plant response rating (0 to 100 scale) ([7]; 500 g ai/ha): 0; Kochia plant response rating ([9]; 500 g ai/ha): 50; Ryegrass, Italian plant response rating ([10]; 500 g ai/ha): 20; Foxtail, Giant plant response rating ([11]; 500 g ai/ha): 50; Galium plant response rating ([12]; 500 g ai/ha): 30; Pigweed plant response rating ([13]; 500 g ai/ha): 60; Ragweed plant response rating ([14]; 500 g ai/ha): 40; Wheat plant response rating ([15]; 500 g ai/ha): 0; Corn plant response rating ([16]; 500 g ai/ha): 40; Barnyardgrass plant response rating ([17]; 500 g ai/ha): 50; Blackgrass plant response rating ([18]; 500 g ai/ha): 70; Barnyardgrass plant response rating (0 to 100 scale) ([19]; 500 g ai/ha): 90 |
| CC1=[N+]([O-])C(C(=O)Nc2cccc(F)c2F)C(c2ccc(F)c(Oc3ccc(Cl)nc3)c2)C1 (racemic) [Compound 51] | 0 | 0 | 0 |  | 0 | 30 | 0 | 0 | 0 | 20 | 0 | 0 | 70 | 0 | 60 | 10 | 0 | 0 | 70 | 40 | Kochia plant response rating [3, 20]: 0; Ryegrass, Italian plant response rating [4, 20]: 0; Foxtail, Giant plant response rating [5, 20]: 0; Pigweed plant response rating [6, 20]: 0; Ragweed plant response rating [7, 20]: 0; Kochia plant response rating ([9]; 31 g ai/ha): 0; Ryegrass, Italian plant response rating ([10]; 31 g ai/ha): 0; Foxtail, Giant plant response rating ([11]; 31 g ai/ha): 0; Galium plant response rating ([12]; 31 g ai/ha): 60; Pigweed plant response rating ([13]; 31 g ai/ha): 0; Ragweed plant response rating ([14]; 31 g ai/ha): 0; Wheat plant response rating ([15]; 31 g ai/ha): 0; Corn plant response rating ([16]; 31 g ai/ha): 0; Barnyardgrass plant response rating ([17]; 31 g ai/ha): 0; Blackgrass plant response rating ([18]; 31 g ai/ha): 0; Barnyardgrass plant response rating [19, 20]: 0 |
| CC1=[N+]([O-])C(C(=O)Nc2cccc(F)c2F)C(c2ccc(F)c(Oc3ncc(F)cn3)c2)C1 (racemic) [Compound 52] | 0 | 0 | 0 | 20 | 80 | 80 | 0 | 0 | 0 | 0 | 20 | 0 | 20 | 0 | 0 | 10 | 0 | 30 | 30 | 90 | Ryegrass, Italian plant response rating (0 to 100 scale) ([4]; 500 g ai/ha): 90; Foxtail, Giant plant response rating (0 to 100 scale) ([5]; 500 g ai/ha): 100; Pigweed plant response rating (0 to 100 scale) ([6]; 500 g ai/ha): 70; Ragweed plant response rating (0 to 100 scale) ([7]; 500 g ai/ha): 60; Kochia plant response rating ([9]; 500 g ai/ha): 20; Ryegrass, Italian plant response rating ([10]; 500 g ai/ha): 60; Foxtail, Giant plant response rating ([11]; 500 g ai/ha): 90; Galium plant response rating ([12]; 500 g ai/ha): 70; Pigweed plant response rating ([13]; 500 g ai/ha): 0; Ragweed plant response rating ([14]; 500 g ai/ha): 30; Wheat plant response rating ([15]; 500 g ai/ha): 70; Corn plant response rating ([16]; 500 g ai/ha): 70; Barnyardgrass plant response rating ([17]; 500 g ai/ha): 70; Blackgrass plant response rating ([18]; 500 g ai/ha): 70; Barnyardgrass plant response rating (0 to 100 scale) ([19]; 500 g ai/ha): 100 |
